Read-outs that look alike come from different tables or passages of the source.
Target: T1, hTMEM16A (abc) (Homo sapiens, UniProt Q5XXA6, DEL476-501)
T1 sequence (Q5XXA6 with tags, fused parts or gaps isoform Q5XXA6-5 DEL539-564): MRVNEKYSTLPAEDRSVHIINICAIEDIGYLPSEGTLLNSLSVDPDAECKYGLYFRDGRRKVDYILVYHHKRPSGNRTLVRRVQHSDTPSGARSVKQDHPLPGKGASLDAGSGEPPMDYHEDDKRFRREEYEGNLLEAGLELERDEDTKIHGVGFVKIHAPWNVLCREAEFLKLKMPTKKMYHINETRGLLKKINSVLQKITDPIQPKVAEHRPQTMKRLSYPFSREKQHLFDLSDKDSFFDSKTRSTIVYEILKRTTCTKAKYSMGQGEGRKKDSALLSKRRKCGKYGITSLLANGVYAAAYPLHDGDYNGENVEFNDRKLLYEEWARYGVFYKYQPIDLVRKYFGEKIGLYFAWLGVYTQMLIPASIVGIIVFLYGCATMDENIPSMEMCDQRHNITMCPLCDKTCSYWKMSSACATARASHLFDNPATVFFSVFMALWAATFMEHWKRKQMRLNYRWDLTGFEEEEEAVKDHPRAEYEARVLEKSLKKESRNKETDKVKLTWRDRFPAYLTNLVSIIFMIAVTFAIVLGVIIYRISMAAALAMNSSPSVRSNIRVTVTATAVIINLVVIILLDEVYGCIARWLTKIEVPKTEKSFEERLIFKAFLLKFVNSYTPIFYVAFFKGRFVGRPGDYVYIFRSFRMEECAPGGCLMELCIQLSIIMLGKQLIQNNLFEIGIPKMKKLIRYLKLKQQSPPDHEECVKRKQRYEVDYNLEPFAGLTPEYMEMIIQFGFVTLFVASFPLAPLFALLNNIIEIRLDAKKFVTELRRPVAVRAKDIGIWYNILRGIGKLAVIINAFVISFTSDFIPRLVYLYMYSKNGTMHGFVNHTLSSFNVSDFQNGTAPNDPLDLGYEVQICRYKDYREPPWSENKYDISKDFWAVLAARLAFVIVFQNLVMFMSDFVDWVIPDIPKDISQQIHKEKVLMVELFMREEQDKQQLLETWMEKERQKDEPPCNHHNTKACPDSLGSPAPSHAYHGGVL
Assay: TMEM16A halide-sensitive YFP (eYFP) high-throughput screening assay
Type: cell-based
Design: expressed in transfected cells
Conditions: for remaining activity at 5 µM / inhibition at 5 µM: 5 μM compound; for remaining activity at 5 µM: POC 0 = full block by benzbromarone, read-out: POC (percent of control) halide-sensitive YFP response in HTS; for inhibition at 5 µM: read-out: % inhibition of halide-sensitive YFP response during HTS
Procedure: The High-Throughput-Screening clone HEK293T:eYFP: TMEM16A(abc) stably expressing eYFP (H149Q,I153L) and human TMEM16A(abc) was generated by stable transfection followed by functional clone selection. HEK293T:eYFP (H149Q,I153L) was cultivated in propagation medium DMEM (PAN #P04-03550) containing 10% FBS (PAN #3302-P281402), 1x Pen/Strep (PAN #P06-07100), 1x L-glutamine (PAN #P04-80100), 10 mM HEPES (PAN #P05-01100) and 0.5 μg/ml puromycin (Sigma #P7255) and transfected with pIREShyg3:huTMEM16A(abc). Stable cell pool was generated by cultivation in propagation medium containing 0.5 μg/ml puromycin and 200 μg/ml hygromycin B for 20 days. Cell pool was then diluted in the same medium and seeded in 384-well microtiter plates. Grown clones were replicated into daughter plates using a CyBio Felix pipetting platform (Analytik Jena AG). Daughter plates were analyzed using the eYFP assay essentially as described in the HTS protocol below using a FLIPR-Tetra. Clones showing maximal quenching of eYFP fluorescence intensity after addition of trigger solution (assay buffer containing NaI and ionomycin) were selected for propagation from the mother plate and further characterized with regard to HTS assay development performance parameters including inhibition by the benchmark compound benzbromarone, S/B and relevant HTS quality control statistics (Z-factor, Z′-factor, RZ-factor, RZ′-factor). One clone was finally selected as HTS clone and used throughout the entire HTS campaign to identify TMEM16A antagonists.
For the HTS screen, the screening cell line HEK293T:eYFP(H149Q,I153L):TMEM16A(abc) stably expressing halide sensitive YFP (eYFP (H149Q,I153L)) and human TMEM16A(abc) were propagated in DMEM (PAN #P04-03550) containing 10% FBS (PAN #3302-P281402), 1x Pen/Strep (PAN #P06-07100), 1x L-glutamine (PAN #P04-80100), 10 mM HEPES (PAN #P05-01100), 0.5 μg/ml puromycin (Sigma #P7255), and 150 μg/ml hygromycin B (Life Technologies #10687-010) in Corning TC-treated flasks. Twenty four hours prior to the assay 11,000 cells were seeded per well in 30 μl assay plating medium [propagation medium containing 0.01% Pluronic F-68 (PAN #P08-2100)] in Corning CellBIND 384-Well Flat Clear Bottom Black Polystyrene Microplates (Corning #3683) and cultivated for 24 h at 37°C. Before initiating the fully automated and scheduled HTS sequence, cell plates were transferred to an incubator and stored at RT and 0% CO2. Library compounds were delivered in Greiner 384 PP plates (Greiner #784201) containing 1mM compound dissolved in DMSO in columns 1–22 and DMSO in columns 23 and 24 and were stored in a stacker at RT. Further dilutions of compounds were generated by fully automated liquid handling using a CyBio 384-well/25 μl pipetting head (Analytik Jena AG) by diluting 0.5 μl compound (1 mM in DMSO) in 20 μl assay buffer [1xHBSS (Life Technologies #14025050) containing 10 mM HEPES (PAN #P05-01100) and 0.01% Pluronic F-68 (PAN #P08-2100), adjusted to pH 7.4] in Greiner 384 PP plates (Greiner #784201). Intermediate compound plates contained 25 μM library compounds in assay buffer containing 2.5% DMSO in columns 1–22, assay buffer containing 2.5% DMSO as neutral control in column 23 and 100 μM Benzbromarone (Sigma #B5774) in assay buffer containing 2.5% DMSO in column 24 as ligand control (benchmark antagonist) and were stored in a stacker at RT. Simultaneous to compound dilution medium was aspirated from cell plates using a Biotek 405 microplate washer followed by washing the cells twice with 65 μl/well assay buffer. With the final aspiration of assay buffer, the residual volume was adjusted to 15 μl. […] Cell plates were incubated for 30 min at RT and 0% CO2. After incubation cell plates were transferred to a FLIPR-Tetra and 25 μl trigger solution [assay buffer containing 20 mM sodium iodide (Sigma #383112) and 4 μM ionomycin (Sigma #I0634; stock solution 10 mM in DMSO)] was added before reading iodide-quenching of eYFP fluorescence intensity. […]

[1] = HEK293T:eYFP:TMEM16A(abc), 30 min preincubation, 10 mM iodide, 2 μM ionomycin, read-out: IC50 in the eYFP HTS assay

IC50 (supplement, read-out: IC50, TMEM16A (abc) eYFP HTS assay)	SMILES	remaining activity at 5 µM	inhibition at 5 µM	IC50 [1]	IC50 (22-point dose-response, read-out: IC50, TMEM16A eYFP assay dose response of the HTS campaign)
–	O=C(Nc1ccc([N+](=O)[O-])cc1Cl)c1cc(Cl)ccc1O [Niclosamide]	69 ± 3.3%	31%	140 nM	–
2840 nM	O=C(Nc1ncc([N+](=O)[O-])s1)c1cccs1 [NTTP]	–	–	–	–
–	COc1cc([N+](=O)[O-])ccc1NC(=O)c1cc(Cl)c2ccccc2c1O [Cpd 4]	61.1 ± 7.8%	38.9%	970 nM	–
–	N#Cc1c(C(F)(F)F)cc(O)n2c1nc1ccccc12 [1PBC]	74.8%	25.2%	–	1050 nM
